Results: patent US20040097432A1, “Method of reducing cholesterol” (ACCESS BUSINESS GROUP INTERNATIONAL LLC., priority 2002, published 2004)

Tested on: HepG2 hepatocytes
Assay: Inhibition of cholesterol synthesis in HepG2 hepatocytes (secreted cholesterol and cholesteryl ester, AmplexRed)
Format: cell-based
Method: HepG2 hepatocytes were used as a model to study the inhibition of cholesterol synthesis according to the procedures described in Dashti, N., et al., J. Lipid Res. 28:423-436 (1987) and Mohammadi, A., et al., Arterioscler. Thromb. Vasc. Biol., […]:783-793 (1998). […] Amounts of secreted cholesterol and cholesteryl ester are measured from acetate fed hepatocyte culture media using a fluorescent indicator AmplexRed.
The same cholesterol inhibition model used in Example I was used to determine the cholesterol synthesis inhibition of theaflavins, including theaflavin and gallate esters of theaflavin.

Row | SMILES | inhibition at 50 µg/mL (Homo sapiens, 0.05 mg/ml theaflavin, acetate fed HepG2 culture media, FIG. 1, read-out: inhibitory effect (cholesterol synthesis/release)) [%] | dose specific response of hepatocytes compared to Lipotor (same weight basis (tablet weight, 6.7% actives), HepG2, FIG. 1) | cholesterol inhibition activity (contribution among materials tested) (HepG2, dose response FIG. 2, materials of Table I)
1 | O=c1c(O)cc([C@H]2Oc3cc(O)cc(O)c3C[C@H]2O)cc2c([C@H]3Oc4cc(O)cc(O)c4C[C@H]3O)cc(O)c(O)c12 [theaflavin, Theaflavin] | ~30 | comparable or slightly better than Lipotor® | –
2 | O=C(O[C@@H]1Cc2c(O)cc(O)cc2O[C@@H]1c1cc(=O)c(O)c2c(O)c(O)cc([C@H]3Oc4cc(O)cc(O)c4C[C@H]3O)c2c1)c1cc(O)c(O)c(O)c1 [theaflavin-3-gallate] | – | – | provided much of the cholesterol inhibition activity
